From ChEMBL document CHEMBL1201862, “PubChem BioAssay data set” (2004)
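Step 1: Grow cells in 96-well plates. Step 2: Expose to compound for 48 hours at 5 concentrations. Step 3: Interpolate endpoints linearly; if unreached, use highest concentration. Here, GI50 denotes the concentration required for 50% inhibition of growth.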 Calls of active or inactive are those of the source. No stated cut-off is given here; in the data, active = GI50 up to about 1.1 µM and inactive = higher.

Experiments:
Assay in all cases: NCI anticancer screen, dose series, 48 h
[1] = system: K562
[2] = system: OVCAR-5
[3] = system: SK-MEL-2
[4] = system: SNB-19
[5] = system: NCI-H23
[6] = system: 786-0
[7] = system: HOP-62
[8] = system: SK-MEL-5
[9] = system: OVCAR-4
[10] = system: HT-29
[11] = system: NCI/ADR-RES
[12] = system: M14
[13] = system: A498
[14] = system: Hs-578T
[15] = system: RPMI-8226
[16] = system: COLO 205
[17] = system: HCC 2998
[18] = system: CCRF-CEM
[19] = system: HCT-116
[20] = system: UACC-257
[21] = system: SF-268
[22] = system: MCF7
[23] = system: SK-OV-3
[24] = system: EKVX
[25] = system: MDA-MB-435
[26] = system: PC-3
[27] = system: SW-620
[28] = system: OVCAR-3
[29] = system: SK-MEL-28
[30] = system: Malme-3M
[31] = system: HL-60
[32] = system: BT-549
[33] = system: NCI-H226
[34] = system: MDA-MB-231
[35] = system: IGROV-1
[36] = system: NCI-H522
[37] = system: TK-10
[38] = system: UACC-62
[39] = system: CAKI-1
[40] = system: SF-295
[41] = system: U-251
[42] = system: SR
[43] = system: NCI-H460
[44] = system: A549
[45] = system: LOX IMVI
[46] = system: SN12C
[47] = system: OVCAR-8
[48] = system: SNB-75
[49] = system: UO-31
[50] = system: ACHN
[51] = system: SF-539
[52] = system: KM12
[53] = system: HCT-15
[54] = system: T47D
[55] = system: RXF 393
[56] = system: MOLT-4
[57] = system: HOP-92
[58] = system: MDA-N
[59] = system: DU-145
[60] = system: SNB-78
[61] = system: DMS-114
[62] = system: KM-20L2
[63] = system: M19-MEL
[64] = system: DMS-273

Measured: GI50

COc1cccc2cc(C(=O)NC34CC5CC(CC(C5)C3)C4)c(=N)oc12
49.8 µM: [53]
inactive: [1] 50.9 µM | [2] > 100 µM | [3] > 95.1 µM | [4] 73.8 µM | [5] > 100 µM | [6] 59.8 µM | [7] 53.1 µM | [8] > 69.2 µM | [9] > 60.4 µM | [10] 47.1 µM | [11] > 86.1 µM | [12] > 100 µM | [13] > 100 µM | [14] 34 µM | [15] 25.6 µM | [16] 58.3 µM | [17] > 54.2 µM | [18] 8.04 µM | [19] 52.1 µM | [20] > 89.3 µM | [21] 78.9 µM | [22] 13.2 µM | [23] 58.6 µM | [24] > 61.8 µM | [25] > 82.4 µM | [26] 56.6 µM | [27] 49.9 µM | [28] 24.6 µM | [29] > 71 µM | [30] > 86.5 µM | [31] 3.13 µM | [32] > 80.7 µM | [33] > 61 µM | [34] > 100 µM | [35] > 46.3 µM | [36] 23.4 µM | [37] 64 µM | [38] > 100 µM | [39] 99.5 µM | [40] 68.5 µM | [41] 55.3 µM | [42] 10.2 µM | [43] > 89.7 µM | [44] 64.7 µM | [45] > 52.8 µM | [46] > 100 µM | [47] 23.8 µM | [48] 44.6 µM | [49] 2.67 µM | [50] > 67.6 µM | [51] > 34.3 µM | [52] 54.6 µM | [54] 18.2 µM | [55] 33.6 µM | [56] 1.35 µM | [57] > 36.2 µM | [58] > 100 µM | [59] > 100 µM

O=C(O)C(Cl)(c1ccccc1)c1ccccc1
> 100 µM: [53]
inactive: [1] 83 µM | [2] > 100 µM | [3] > 100 µM | [4] > 100 µM | [5] > 100 µM | [6] > 100 µM | [7] > 100 µM | [8] > 100 µM | [9] > 100 µM | [10] > 100 µM | [11] > 100 µM | [12] > 100 µM | [13] > 100 µM | [14] > 100 µM | [15] > 100 µM | [16] > 100 µM | [17] > 100 µM | [18] > 100 µM | [19] > 100 µM | [20] > 100 µM | [21] > 100 µM | [22] > 100 µM | [23] > 100 µM | [24] > 100 µM | [25] > 100 µM | [26] > 100 µM | [27] > 100 µM | [28] > 100 µM | [29] > 100 µM | [30] > 100 µM | [31] > 100 µM | [32] > 100 µM | [33] > 100 µM | [34] > 100 µM | [35] > 100 µM | [36] > 100 µM | [37] > 100 µM | [38] > 100 µM | [39] > 100 µM | [40] > 100 µM | [41] > 100 µM | [42] > 100 µM | [43] > 100 µM | [44] > 100 µM | [45] > 100 µM | [46] > 100 µM | [47] > 100 µM | [48] > 100 µM | [49] > 100 µM | [50] > 100 µM | [51] > 100 µM | [52] > 100 µM | [54] > 100 µM | [55] > 100 µM | [56] > 100 µM | [57] > 100 µM | [58] > 100 µM | [59] > 100 µM

CN(C)c1ccc(C=c2c3ccccc3n3c2c2c([n+]3C)CCCC2)cc1
active: [1] 0.023 µM | [2] 0.463 µM | [3] 0.173 µM | [4] 0.0698 µM | [5] 0.269 µM | [6] 0.261 µM | [7] 0.165 µM | [8] 0.0687 µM | [9] 0.255 µM | [10] 0.114 µM | [12] 0.208 µM | [13] 0.247 µM | [14] 0.351 µM | [15] 0.0352 µM | [16] 0.0301 µM | [17] 0.0792 µM | [18] 0.0465 µM | [19] 0.0537 µM | [20] 0.301 µM | [21] 0.183 µM | [22] 0.0491 µM | [23] 0.32 µM | [24] 0.0227 µM | [25] 0.109 µM | [26] 0.219 µM | [27] 0.118 µM | [28] 0.152 µM | [29] 0.542 µM | [30] 0.17 µM | [31] 0.075 µM | [32] 0.186 µM | [33] 0.447 µM | [34] 0.575 µM | [35] 0.138 µM | [36] 0.161 µM | [37] 0.207 µM | [38] 0.42 µM | [39] 0.908 µM | [40] 0.0991 µM | [41] 0.0223 µM | [42] 0.0233 µM | [43] 0.11 µM | [44] 0.0728 µM | [45] 0.143 µM | [46] 0.146 µM | [47] 0.128 µM | [48] 0.0796 µM | [50] 0.314 µM | [51] 0.165 µM | [52] 0.0681 µM | [54] 0.0191 µM | [55] 0.106 µM | [56] 0.116 µM | [57] 0.046 µM | [58] 0.1 µM | [59] 0.245 µM
1.87 µM: [53]
inactive: [11] 3.17 µM | [49] 1.12 µM

CCOC(=O)c1ccc2nc(-c3ccc(S(=O)(=O)F)cc3)cc(O)c2c1
31.6 µM: [53]
inactive: [1] 42.8 µM | [2] > 100 µM | [3] 27.5 µM | [4] > 100 µM | [5] 21.6 µM | [6] 36.4 µM | [7] 32.5 µM | [8] 50.2 µM | [9] 65.3 µM | [10] 62.1 µM | [11] > 100 µM | [12] 40.9 µM | [13] 14.8 µM | [14] 54.8 µM | [15] 45.9 µM | [16] 58.9 µM | [17] 14.5 µM | [18] 30.7 µM | [19] 23.1 µM | [20] 51.8 µM | [21] 60.8 µM | [22] 30.1 µM | [23] 38.9 µM | [24] > 100 µM | [25] 40.9 µM | [26] 50.6 µM | [27] 76.7 µM | [28] 19.6 µM | [29] 59.6 µM | [30] 25.1 µM | [31] 26.7 µM | [32] 37.8 µM | [33] > 100 µM | [34] 36.3 µM | [35] 48.8 µM | [36] 15.8 µM | [37] 27.7 µM | [38] 24 µM | [39] 39.9 µM | [40] 39.8 µM | [41] 34.9 µM | [42] 35.5 µM | [43] 34.4 µM | [44] 53.3 µM | [45] 36.5 µM | [46] 43.9 µM | [47] 61.2 µM | [48] 25.2 µM | [49] 71 µM | [50] 24.2 µM | [51] 56.5 µM | [52] 29.8 µM | [54] 25.1 µM | [55] 31.9 µM | [56] 36.8 µM | [57] > 100 µM | [58] 33.5 µM | [59] 48.9 µM

C=C(C)C1CC=C(C)[C@](O)(C2(O)C[C@H](C(=C)C)CC=C2C)C1 (stereo partly specified)
inactive: [2] > 100 µM | [60] > 100 µM | [4] > 100 µM | [5] > 100 µM | [7] > 100 µM | [61] > 100 µM | [10] > 100 µM | [12] > 100 µM | [13] > 100 µM | [62] > 100 µM | [18] > 100 µM | [19] > 100 µM | [20] > 100 µM | [23] > 100 µM | [24] > 100 µM | [29] > 100 µM | [31] > 100 µM | [35] > 100 µM | [36] > 100 µM | [37] > 100 µM | [38] > 100 µM | [40] > 100 µM | [41] > 100 µM | [42] > 100 µM | [43] > 100 µM | [44] > 100 µM | [47] > 100 µM | [63] > 100 µM | [49] > 100 µM | [50] > 100 µM | [52] > 100 µM | [64] > 100 µM | [55] > 100 µM | [56] > 100 µM | [57] > 100 µM
